Data set [1] concerns the target T1, ACK1 (Homo sapiens, UniProt Q07912).
T1 construct: purchased Reaction Biology
As to the kind of experiment: Reaction Biology 33P Hotspot assay. The format is biochemical.

Data set [2] deals with UKE1. Briefly: Cell viability (UKE1). It is filed as cell-based.
For data set [3], the system named is MDA-MB-231. Briefly: Cell viability (MDA-MB-231). The format is cell-based. The conditions noted are these: Homo sapiens.
The target of data set [4] is T1, ACK1. As to the kind of experiment: ACK1 IC50 (Table 1, assay not specified). The format is biochemical.
For data set [5] the following is noted: attributed to oxidation of dithiolane ring and NMe2; cited from earlier work.
Data set [6] relates to AR Tyr267. The conditions noted are these: cited from earlier work.
The subject of data set [7] is castration and radioresistant prostate xenograft tumor. The following applies: in vivo; cited from earlier work.
The subject of data set [8] is AKT Tyr176. The conditions noted are these: pancreatic cancer cells; cited from earlier work.
For data set [9], the target named is T1, ACK1. Briefly: ACK1 ELISA % inhibition at 100 nM. The format is biochemical. Background: In an ELISA, binding on a coated surface is turned into a signal by an enzyme label.

T1 sequence (Q07912 whole entry): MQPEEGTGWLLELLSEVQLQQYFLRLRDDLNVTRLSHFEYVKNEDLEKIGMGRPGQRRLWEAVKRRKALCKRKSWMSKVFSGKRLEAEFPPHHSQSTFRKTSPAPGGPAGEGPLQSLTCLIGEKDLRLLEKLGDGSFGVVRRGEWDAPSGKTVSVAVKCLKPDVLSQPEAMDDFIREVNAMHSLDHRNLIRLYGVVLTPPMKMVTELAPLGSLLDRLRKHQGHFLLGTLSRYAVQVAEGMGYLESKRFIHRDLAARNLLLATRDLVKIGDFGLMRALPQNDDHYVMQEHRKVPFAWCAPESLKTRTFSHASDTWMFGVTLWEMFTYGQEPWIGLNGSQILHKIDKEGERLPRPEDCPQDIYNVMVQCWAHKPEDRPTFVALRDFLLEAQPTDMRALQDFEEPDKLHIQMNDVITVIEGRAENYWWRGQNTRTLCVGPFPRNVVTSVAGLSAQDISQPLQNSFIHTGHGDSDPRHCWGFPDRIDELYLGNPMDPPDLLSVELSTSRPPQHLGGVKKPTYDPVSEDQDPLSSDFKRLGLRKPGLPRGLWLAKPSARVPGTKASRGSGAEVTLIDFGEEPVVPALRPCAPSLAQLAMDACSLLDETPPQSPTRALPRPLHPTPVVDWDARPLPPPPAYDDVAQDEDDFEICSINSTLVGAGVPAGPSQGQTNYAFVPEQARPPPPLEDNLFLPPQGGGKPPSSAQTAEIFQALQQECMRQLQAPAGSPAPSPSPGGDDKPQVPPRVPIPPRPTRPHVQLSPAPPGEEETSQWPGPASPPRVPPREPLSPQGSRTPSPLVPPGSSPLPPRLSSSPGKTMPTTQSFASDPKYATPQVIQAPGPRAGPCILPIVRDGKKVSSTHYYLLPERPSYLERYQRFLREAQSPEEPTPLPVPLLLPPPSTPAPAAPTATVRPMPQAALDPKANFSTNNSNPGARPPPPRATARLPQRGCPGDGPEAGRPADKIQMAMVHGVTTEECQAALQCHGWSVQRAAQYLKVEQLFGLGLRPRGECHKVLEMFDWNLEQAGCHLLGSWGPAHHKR

As for `Cn1cc(-c2ccc(Nc3ncc(Cl)c(NCC4CCOCC4)n3)cc2)cn1` [5-chloro-N^2-(4-(1-methyl-1H-pyrazol-4-yl)phenyl)-N^4-((tetrahydro-2H-pyran-4-yl)methyl)pyrimidine-2,4-diamine], the IC50 in data set [1] was determined as 29.1 nM. In addition, the EC50 came to 6700 nM in data set [2] and 7720 nM in data set [3].
`Clc1cnc(Nc2ccc(OCCN3CCCC3)cc2)nc1NC[C@H]1CCCO1` [(R)-5-chloro-N^2-(4-(2-(pyrrolidin-1-yl)ethoxy)phenyl)-N^4-((tetrahydrofuran-2-yl)methyl)pyrimidine-2,4-diamine] displayed an IC50 in data set [4] of 56.5 nM.
As to `CN(C)CCOc1ccc(-c2oc3ncnc(NCC4SCCS4)c3c2-c2ccccc2)cc1` [Compound 1c], the pharmacokinetic properties entry in data set [5] is “poor pharmacokinetic properties”.
For `c1ccc(-c2oc3ncnc(NC[C@@H]4CCCO4)c3c2-c2ccccc2)cc1` [Compound 1b], in data set [6], the “AR Tyr267 phosphorylation” value is “inhibits”. For the same compound, in data set [7], the “castration and radioresistant prostate xenograft tumor growth” value was “inhibits”. In [8], the “ACK1 dependent AKT Tyr176 phosphorylation” value is on record as “inhibits”.
For the compound `COc1cc(N2CCN(C)CC2)ccc1Nc1ncc(Cl)c(N[C@@H](C)c2ccc(Cl)cc2)n1` [(S)-5-chloro-N^4-(1-(4-chlorophenyl)ethyl)-N^2-(2-methoxy-4-(4-methylpiperazin-1-yl)phenyl)pyrimidine-2,4-diamine], in data set [9], 0.1 µM produced 17.5% inhibition.
Same read-out and setting: to `COc1cc(N2CCN(C)CC2)ccc1Nc1ncc(Cl)c(NCc2ccc(C(F)(F)F)cc2)n1` [5-chloro-N^2-(2-methoxy-4-(4-methylpiperazin-1-yl)phenyl)-N^4-(4-(trifluoromethyl)benzyl)pyrimidine-2,4-diamine] belongs 31.1%.
The compound `Fc1cc(Nc2ncc(Cl)c(NC[C@H]3CCCO3)n2)ccc1-c1cnn(C2CCOCC2)c1` [(R)-5-chloro-N^2-(3-fluoro-4-(1-(tetrahydro-2H-pyran-4-yl)-1H-pyrazol-4-yl)phenyl)-N^4-((tetrahydrofuran-2-yl)methyl)pyrimidine-2,4-diamine] gave an IC50 in data set [4] of 78.7 nM.
Consider `COc1cc(N2CCN(C)CC2)ccc1Nc1ncc(C)c(Nc2cccc(NS(=O)(=O)C(C)(C)C)c2)n1` [N-(3-((2-((2-methoxy-4-(4-methylpiperazin-1-yl)phenyl)amino)-5-methylpyrimidin-4-yl)amino)phenyl)-2-methylpropane-2-sulfonamide], for which the inhibition at 0.1 µM in [9] came to 100%.
Compound `OCCn1cc(-c2ccc(Nc3ncc(Cl)c(NC[C@H]4CCCO4)n3)cc2F)cn1` [(R)-2-(4-(4-((5-chloro-4-(((tetrahydrofuran-2-yl)methyl)amino)pyrimidin-2-yl)amino)-2-fluorophenyl)-1H-pyrazol-1-yl)ethan-1-ol] returned an IC50 in data set [4] of 46.1 nM.
Same read-out and setting: to `COCCn1cc(-c2ccc(Nc3ncc(Cl)c(NC[C@H]4CCCO4)n3)cc2F)cn1` [(R)-5-chloro-N^2-(3-fluoro-4-(1-(2-methoxyethyl)-1H-pyrazol-4-yl)phenyl)-N^4-((tetrahydrofuran-2-yl)methyl)pyrimidine-2,4-diamine] belongs 137 nM; to `Fc1cc(Nc2ncc(Cl)c(NC[C@H]3CCCO3)n2)ccc1OCCN1CCCC1` [(R)-5-chloro-N^2-(3-fluoro-4-(2-(pyrrolidin-1-yl)ethoxy)phenyl)-N^4-((tetrahydrofuran-2-yl)methyl)pyrimidine-2,4-diamine], 60.1 nM.
In the case of `COc1cc(N2CCN(C)CC2)ccc1Nc1ncc(C)c(Nc2ccc(Cl)c(NS(=O)(=O)C(C)(C)C)c2)n1` [N-(2-chloro-5-((2-((2-methoxy-4-(4-methylpiperazin-1-yl)phenyl)amino)-5-methylpyrimidin-4-yl)amino)phenyl)-2-methylpropane-2-sulfonamide], in data set [9], the inhibition at 0.1 µM was 98.7%.
Take `O=C(COc1cccc2c1C(=O)N(C1CCC(=O)NC1=O)C2=O)NCCCCN1CCN(c2ccc(Nc3ncc(Cl)c(NC[C@H]4CCCO4)n3)cc2)CC1` (stereo partly drawn) [N-(4-(4-(4-((5-chloro-4-((((R)-tetrahydrofuran-2-yl)methyl)amino)pyrimidin-2-yl)amino)phenyl)piperazin-1-yl)butyl)-2-((2-(2,6-dioxopiperidin-3-yl)-1,3-dioxoisoindolin-4-yl)oxy)acetamide]: half-maximal inhibition in data set [4] (IC50) was put at 56.4 nM.

In general, IC50 refers to the concentration needed to halve the response being measured. A high value points to weaker potency. Usually EC50 stands for the concentration that produces a half-maximal response. Read a high EC50 as weaker potency. What is called inhibition is how much of the control response was suppressed.

(Values after patent US12637432B2, “Inhibitors of ACK1/TNK2 tyrosine kinase” (H. LEE MOFFITT CANCER CENTER AND RESEARCH INSTITUTE, INC., priority 2020, dated 2026).)
